The target in this experiment is T1, acyl-CoA:cholesterol O-acyltransferase (ACAT) (Oryctolagus cuniculus, UniProt G1SFD9).
T1 construct: The intestinal mucosa of a white rabbit was homogenized and microsomal fraction was obtained by stepwise centrifugation; from tissue; host or cells: intestinal mucosa of white rabbit, microsomal fraction
T1 sequence (G1SFD9 1-524): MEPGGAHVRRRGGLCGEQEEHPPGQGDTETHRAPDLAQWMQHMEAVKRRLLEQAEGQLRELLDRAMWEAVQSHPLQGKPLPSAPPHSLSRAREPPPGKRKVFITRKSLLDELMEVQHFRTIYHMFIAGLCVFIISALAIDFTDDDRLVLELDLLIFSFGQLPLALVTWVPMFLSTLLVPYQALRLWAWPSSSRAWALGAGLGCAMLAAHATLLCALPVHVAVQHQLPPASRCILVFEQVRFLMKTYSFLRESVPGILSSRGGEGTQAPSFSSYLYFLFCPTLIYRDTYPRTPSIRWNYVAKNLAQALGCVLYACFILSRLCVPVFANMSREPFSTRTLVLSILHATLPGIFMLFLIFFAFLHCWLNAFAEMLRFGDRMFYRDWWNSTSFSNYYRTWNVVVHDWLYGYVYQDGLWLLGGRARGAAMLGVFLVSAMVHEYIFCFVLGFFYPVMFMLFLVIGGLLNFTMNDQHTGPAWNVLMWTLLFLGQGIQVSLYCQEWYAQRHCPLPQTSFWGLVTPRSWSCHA
Nature of the experiment: Inhibitory activity on acyl-CoA:cholesterol O-acyltransferase (ACAT), intestinal mucosa microsomal fraction, [1-14C]oleyl-CoA incorporation into cholesterol esters. Format: biochemical, white rabbit. Particulars: read-out: Inhibition rate %. The procedure:
Inhibitory activity on acyl-CoA:cholesterol Oacyltransferase (ACAT)
The enzyme used in the test was prepared according to the method of Heider et al. [J. Lipid, Res. 24, 1127 (1983)]. The intestinal mucosa of a white rabbit was homogenized and microsomal fraction was obtained by stepwise centrifugation. The microsomal fraction was suspended in 0,154M phosphate buffer (pH 0 7.4) and stored at -80° C. until use.
ACAT activity was determined by a modification of the method of Helgerud et al. [J. Lipid Res. 22, 271 (1981)] by measuring radioactivity incorporated into cholesterol esters from [1-14C]oleyl-CoA, as an indication. As to the ACAT-inhibiting activity of each compound to be tested, the inhibition rate was calculated by the following equation.

Each structure is given as a SMILES string.

32 molecules from patent publication USRE36832E, “N-heteroaryl-N'-phenylurea derivatives, their production and use” (Nihon Nohyaku Co., LTD, priority 1993, dated 2000) can be followed below.

Consider `CCc1cccc(CC)c1NC(=O)Nc1oc2ccc(F)cc2c1-c1ccccc1Cl` [Compound 1], for which the inhibition at 0.01 µM is 49.8%.
Same read-out and setting: in the case of `CC(C)c1cccc(C(C)C)c1NC(=O)Nc1oc2ccc(F)cc2c1-c1ccccc1Cl` [Compound 2, N-[3-(2-Chlorophenyl)-5-fluorobenzofuran-2-yl]-N'-(2,6-diisopropylphenyl)urea] it was 58.3%.
On to `O=C(Nc1ccccc1)Nc1oc2ccc(Cl)cc2c1-c1ccccc1Cl` [Compound 4, N-[5-Chloro-3-(2-chlorophenyl)benzofuran-2-yl]-N'-phenylurea], for which the inhibition at 1 µM was found to be 77.9%.
As for `Cc1ccccc1NC(=O)Nc1oc2ccc(Cl)cc2c1-c1ccccc1Cl` [Compound 5, N-[5-Chloro-3-(2-chlorophenyl)benzofuran-2-yl]-N'-(2-methylphenyl)urea], the inhibition at 0.01 µM is 15.4% and the inhibition at 1 µM came to 98.5%.
Consider `O=C(Nc1ccccc1C(F)(F)F)Nc1oc2ccc(Cl)cc2c1-c1ccccc1Cl` [Compound 7, N-[5-Chloro-3-(2-chlorophenyl)benzofuran-2-yl]-N'-(2-trifluoromethylphenyl)urea], for which the inhibition at 0.01 µM turned out to be 37.2% and the inhibition at 1 µM was 99.1%.
Turning to `COc1ccccc1NC(=O)Nc1oc2ccc(Cl)cc2c1-c1ccccc1Cl` [Compound 8, N-[5-Chloro-3-(2-chlorophenyl)benzofuran-2-yl]-N'-(2-methoxyphenyl)urea], the inhibition at 0.01 µM came out at 24.9% and the inhibition at 1 µM was 97.4%.
As to `CC(C)c1cccc(C(C)C)c1NC(=O)Nc1oc2ccc(Cl)cc2c1-c1ccccc1Cl` [Compound 13, N-[5-Chloro-3-(2-chlorophenyl)benzofuran-2-yl]-N'-(2,6-diisopropylphenyl)urea], the inhibition at 0.01 µM worked out at 84.9% and the inhibition at 1 µM was determined as 99.4%.
In the same order, the values of `Cc1cccc(C(C)C)c1NC(=O)Nc1oc2ccc(Cl)cc2c1-c1ccccc1Cl` [Compound 15, N-[5-Chloro-3-(2-chlorophenyl)benzofuran-2-yl]-N'-(2-isopropyl-6-methylphenyl)urea] are 76.8% and 99.4%.
Consider `Cc1cccc(N(C)C)c1NC(=O)Nc1oc2ccc(Cl)cc2c1-c1ccccc1Cl` [Compound 19, N-[5-chloro-3-(2-chlorophenyl)benzofuran-2-yl]-N'-(2-dimethylamino-6-methylphenyl)urea], for which the inhibition at 0.01 µM stood at 71.3%.
The same measure, in the same setting: the value for `Cc1ccc2oc(NC(=O)Nc3c(C(C)C)cccc3C(C)C)c(-c3ccccc3Cl)c2c1` [Compound 22, N-[3-(2-Chlorophenyl)-5-methylbenzofuran-2-yl]-N'-(2,6-diisopropylphenyl)urea] was 69.3%; that for `CCc1ccc2oc(NC(=O)Nc3c(C(C)C)cccc3C(C)C)c(-c3ccccc3Cl)c2c1` [Compound 25, N-[3-(2-Chlorophenyl)-5-ethylbenzofuran-2-yl]-N'-(2,6-diisopropylphenyl)urea] was 73.3%; that for `CCc1ccc2oc(NC(=O)Nc3ccc(F)cc3F)c(-c3ccccc3Cl)c2c1` [Compound 26, N-[-3-(2-Chlorophenyl)-5-ethylbenzofuran-2-yl]-N'-(2,4-difluorophenyl)urea] was 41.2%.
`CCCCCCc1ccc2oc(NC(=O)Nc3c(C(C)C)cccc3C(C)C)c(-c3ccccc3Cl)c2c1` [Compound 27, N-[3-(2-Chlorophenyl)-5-n-hexylbenzofuran-2-yl]-N'-(2,6-diisopropylphenyl)urea]: the inhibition at 0.01 µM is 63.5%.
For `COc1ccc2oc(NC(=O)Nc3c(C(C)C)cccc3C(C)C)c(-c3ccccc3Cl)c2c1` [Compound 30, N-[3-(2-Chlorophenyl)-5-methoxybenzofuran-2-yl]-N'-(2,6-diisopropylphenyl)urea], the inhibition at 0.01 µM amounted to 58.4%.
With `Cc1cc2oc(NC(=O)Nc3c(C)cccc3C)c(-c3ccccc3Cl)c2cc1C` [Compound 36, N-[3-(2-Chlorophenyl)-5,6-dimethylbenzofuran-2-yl]-N'-(2,6-dimethylphenyl)urea], the inhibition at 0.01 µM was 37.6% and the inhibition at 1 µM was found to be 98.9%.
Turning to `Cc1cc2oc(NC(=O)Nc3c(C(C)C)cccc3C(C)C)c(-c3ccccc3Cl)c2cc1C` [Compound 38, N-[3-(2-Chlorophenyl)-5,6-dimethylbenzofuran-2-yl]-N'-(2,6-diisopropylphenyl)urea], the inhibition at 0.01 µM came to 77.2% and the inhibition at 1 µM came to 99.5%.
Taken in the same sequence, the figures for `Cc1cc2oc(NC(=O)Nc3c(C)cccc3C(C)C)c(-c3ccccc3Cl)c2cc1C` [Compound 39] were 70.9% and 99.4%.
In the same order, the values of `Cc1cc(C)c2oc(NC(=O)Nc3c(C(C)C)cccc3C(C)C)c(-c3ccccc3Cl)c2c1` [Compound 43, N-[3-(2-Chlorophenyl)-5,7-dimethylbenzofuran-2-yl]-N'-(2,6-diisopropylphenyl)urea] are 52.1% and 99.5%.
On to `Cc1cc(C)c(NC(=O)Nc2oc3c(C)cc(C)cc3c2-c2ccccc2Cl)c(C)c1` [Compound 45, N-[3-(2-Chlorophenyl)-5,7-dimethylbenzofuran-2-yl]-N'-(2,4,6-trimethylphenyl)urea], for which the inhibition at 1 µM came out at 94%.
In the case of `Cc1cc(C)c2oc(NC(=O)Nc3ccc(F)cc3F)c(-c3ccccc3Cl)c2c1` [Compound 46, N-[3-(2-Chlorophenyl)-5,7-dimethylbenzofuran-2-yl]-N'-(2,4-difluorophenyl)urea], the inhibition at 1 µM amounted to 92.7%.
On the same count and under the same terms, the value for `Cc1cc(C)c2oc(NC(=O)Nc3c(F)cccc3F)c(-c3ccccc3Cl)c2c1` [Compound 47, N-[3-(2-Chlorophenyl)-5,7-dimethylbenzofuran-2-yl]-N'-(2,6-difluorophenyl)urea] was 93%.
For the molecule `Cc1cc(C)c2oc(NC(=O)Nc3c(F)cc(F)cc3F)c(-c3ccccc3Cl)c2c1` [Compound 48, N-[3-(2-Chlorophenyl)-5,7-dimethylbenzofuran-2-yl]-N'-(2,4,6-trifluorophenyl)urea], the inhibition at 0.01 µM was found to be 6.8% and the inhibition at 1 µM was 95.6%.
For the molecule `Cc1cc(C)c2oc(NC(=O)Nc3c(Cl)cccc3Cl)c(-c3ccccc3Cl)c2c1` [Compound 49, N-[3-(2-Chlorophenyl)-5,7-dimethylbenzofuran-2-yl]-N'-(2,6-dichlorophenyl)urea], the inhibition at 0.01 µM is 51.9% and the inhibition at 1 µM came to 99.1%.
Regarding `CC(C)c1cccc(C(C)C)c1NC(=O)Nc1oc2cc3c(cc2c1-c1ccccc1Cl)CCC3` [Compound 53, N-[3-(2-Chlorophenyl)-6,7-dihydro-5H-cyclopenta[f]benzofuran-2-yl]-N'-(2,6-diisopropylphenyl)urea], the inhibition at 0.01 µM was 43.7%.
With `O=C(Nc1ccc(F)cc1F)Nc1oc2cc3c(cc2c1-c1ccccc1Cl)CCC3` [Compound 55, N-[3-(2-Chlorophenyl)-6,7-dihydro-5H-cyclopenta[f]benzofuran-2-yl]-N'-(2,4-difluorophenyl)urea], the inhibition at 0.01 µM stood at 32.1%.
With `CC(C)c1cccc(C(C)C)c1NC(=O)Nc1oc2ccc(Cl)cc2c1-c1ccccc1F` [Compound 58, N-[5-Chloro-3-(2-fluorophenyl)benzofuran-2-yl]-N'-(2,6-diisopropylphenyl)urea], the inhibition at 0.01 µM is 69.2%.
For the molecule `CCc1cccc(CC)c1NC(=O)Nc1oc2ccc(Cl)cc2c1-c1ccccc1C` [Compound 60, N-[5-Chloro-3-(2-methylphenyl)benzofuran-2-yl]-N'-(2,6-diethylphenyl)urea], the inhibition at 0.01 µM was determined as 82.6%.
Same read-out and setting: the value for `Cc1ccccc1-c1c(NC(=O)Nc2c(C(C)C)cccc2C(C)C)oc2ccc(Cl)cc12` [Compound 61, N-[5-Chloro-3-(2-methylphenyl)benzofuran-2-yl]-N'-(2,6-diisopropylphenyl)urea] was 65.6%; that for `CCc1cccc(CC)c1NC(=O)Nc1oc2ccc(Cl)cc2c1-c1ccccc1SC` [Compound 62, N-[5-Chloro-3-(2-methylthiophenyl)benzofuran-2-yl]-N'-(2,6-diethylphenyl)urea] was 91.6%.
In the case of `CSc1ccccc1-c1c(NC(=O)Nc2c(C(C)C)cccc2C(C)C)oc2ccc(Cl)cc12` [Compound 63, N-[5-Chloro-3-(2-methylthiophenyl)benzofuran-2-yl]-N'-(2,6-diisopropylphenyl)urea], the inhibition at 0.01 µM is 72.1%.
As to `CCc1cccc(CC)c1NC(=O)Nc1sc2ccc(Cl)cc2c1-c1ccccc1Cl` [Compound 65, N-[5-Chloro-3-(2-chlorophenyl)-1-benzothiophen-2-yl]-N'-(2,6-diethylphenyl)urea], the inhibition at 0.01 µM was 56.5% and the inhibition at 1 µM turned out to be 99.1%.
`CCc1cccc(CC)c1NC(=O)Nc1sc2ccc(C)cc2c1-c1ccccc1Cl` [Compound 72, N-[3-(2-Chlorophenyl)-5-methyl-1-benzothiophen-2-yl]-N'-(2,6-diethylphenyl)urea]: the inhibition at 0.01 µM turned out to be 60.6%.
